We go through 15 compounds from ChEMBL document CHEMBL1148916, “Additional cytotoxic sterols and saponins from the starfish certonardoa semiregularis” (2004).

Converted amounts (≈) assume the structure as drawn. Where only a bound is given, the exact number is not on record here.

Common to all, as to assay type: functional
Conditions in all cases: read-out: ED50 (the source's name)

One assay concerns HCT-15. The assay is described as follows: Cytotoxicity against human HCT15 cells.
The test system of another assay is SK-OV-3. Put plainly: Cytotoxicity against human SKOV3 cells.
In another assay the test system is SK-MEL-2. The assay is described as follows: Cytotoxicity against human SK-MEL-2 cells.
The next assay deals with A549. Put plainly: Cytotoxicity against human A549 cells.
A further assay deals with XF498. Put plainly: Cytotoxicity against human XF498 cells.

With `C[C@H](CO)CCC[C@@H](C)[C@H]1CC(=O)C2=C3C[C@H](O)[C@H]4[C@@H](O)[C@@H](O)CC[C@]4(C)[C@H]3CC[C@@]21C` [CERTONARDOSTEROL Q4], the EC50 with HCT-15 is 4.2 µg/mL (≈ 9.36 µM); in the assay on SK-OV-3 it was 4.1 µg/mL (≈ 9.14 µM); in the assay on SK-MEL-2, 3.4 µg/mL (≈ 7.58 µM); with A549, 3.8 µg/mL (≈ 8.47 µM); in the assay with XF498, 2.9 µg/mL (≈ 6.46 µM).

`C=C(CC[C@@H](C)[C@H]1CC(=O)C2=C3C[C@H](O)[C@H]4[C@@H](O)[C@@H](O)CC[C@]4(C)[C@H]3CC[C@@]21C)[C@H](C)CO` [CERTONARDOSTEROL Q5]: the EC50 in the assay with HCT-15, with SK-OV-3, with SK-MEL-2, in the assay with A549 and with XF498 was more than 30 µg/mL throughout.

With `CC(/C=C/[C@@H](C)[C@H]1C[C@@H](O)[C@@H]2[C@]1(C)CC[C@@H]1[C@@]3(C)CC[C@H](O)[C@H](O)[C@@H]3[C@@H](O)C[C@]12O)CO` (stereo not given in full), the EC50 in the assay with HCT-15, in the assay on SK-OV-3, in the assay with SK-MEL-2, in the assay on A549 and in the assay with XF498 was more than 30 µg/mL throughout.

For `CC(C)[C@@H](O)CC[C@@H](C)[C@H]1CC(=O)[C@@H]2[C@]1(C)CC[C@@H]1[C@@]3(C)CC[C@H](O)[C@H](O)[C@@H]3[C@@H](O)C[C@]12O` [CERTONARDOSTEROL Q2], the EC50 with HCT-15 stood at 5.82 µg/mL (≈ 12.5 µM); in the assay on SK-OV-3, 6.85 µg/mL (≈ 14.7 µM); with SK-MEL-2, 4.2 µg/mL (≈ 9 µM); in the assay with A549, 6.94 µg/mL (≈ 14.9 µM); with XF498 it was 4.1 µg/mL (≈ 8.79 µM).

As for `CC(C)[C@@H](O)CC[C@@H](C)[C@H]1CC(=O)C2=C3C[C@H](O)[C@H]4C[C@@H](O)CC[C@]4(C)[C@H]3CC[C@@]21C` [CERTONARDOSTEROL Q6], the EC50 in the assay with HCT-15 amounted to 0.48 µg/mL (≈ 1.11 µM); with SK-OV-3 it was 0.22 µg/mL (≈ 0.509 µM); in the assay on SK-MEL-2, 0.17 µg/mL (≈ 0.393 µM); in the assay on A549 it was 0.43 µg/mL (≈ 0.994 µM); with XF498 it was 0.12 µg/mL (≈ 0.277 µM).

As for `COc1cccc2c1C(=O)c1c(O)c3c(c(O)c1C2=O)C[C@@](O)(C(=O)CO)C[C@@H]3O[C@H]1C[C@H](N)[C@H](O)[C@H](C)O1` [DOXORUBICIN], the EC50 with HCT-15 came to 0.18 µg/mL (≈ 0.331 µM); in the assay on SK-OV-3, 0.12 µg/mL (≈ 0.221 µM); in the assay with SK-MEL-2 it was 0.05 µg/mL (≈ 0.092 µM); with A549, 0.04 µg/mL (≈ 0.0736 µM); with XF498 it was 0.12 µg/mL (≈ 0.221 µM).

Consider `C[C@H](CO)CCC[C@@H](C)[C@H]1C[C@@H](O)[C@@H]2[C@]1(C)CC[C@@H]1[C@@]3(C)CC[C@H](O)[C@H](O)[C@@H]3[C@@H](O)C[C@]12O` [CERTONARDOSTEROL A3], for which the EC50 with HCT-15 was found to be 20.3 µg/mL (≈ 43.3 µM); in the assay with SK-OV-3, 16.2 µg/mL (≈ 34.6 µM); with SK-MEL-2, 5.24 µg/mL (≈ 11.2 µM); with A549 it was 11.7 µg/mL (≈ 25 µM); in the assay on XF498, 18.6 µg/mL (≈ 39.7 µM).

Turning to `CC(C)[C@](O)(CO)CC[C@@H](C)[C@H]1C[C@@H](O)[C@H]2[C@@H]3C[C@H](O)[C@H]4[C@@H](O)[C@@H](O)CC[C@]4(C)[C@H]3CC[C@@]21C` [CERTONARDOSTEROL B4], the EC50 is more than 30 µg/mL with HCT-15; 36.6 µg/mL (≈ 75.8 µM) with SK-OV-3; 7.5 µg/mL (≈ 15.5 µM) with SK-MEL-2; more than 30 µg/mL with A549; more than 30 µg/mL with XF498.

For the compound `CO[C@H]1[C@H](O[C@H]2[C@H](O[C@@H](CC[C@@H](C)[C@H]3C[C@@H](O)[C@H]4[C@@H]5C[C@H](O)[C@H]6[C@@H](O)[C@@H](O)CC[C@]6(C)[C@H]5CC[C@@]43C)C(C)C)O[C@H](CO)[C@@H]2O)OC[C@@H](O)[C@@H]1O` [CERTONARDOSIDE H3], the EC50 is 7.2 µg/mL (≈ 9.85 µM) in the assay with HCT-15; 2.8 µg/mL (≈ 3.83 µM) in the assay on SK-OV-3; 0.82 µg/mL (≈ 1.12 µM) in the assay with SK-MEL-2; 3.65 µg/mL (≈ 4.99 µM) with A549; 0.52 µg/mL (≈ 0.711 µM) with XF498.

Take `CC(/C=C/[C@@H](C)[C@H]1C[C@@H](O)[C@H]2[C@@H]3C[C@H](O)[C@H]4[C@@H](O)[C@@H](O)CC[C@]4(C)[C@H]3CC[C@@]21C)CO` (stereo not given in full) [CERTONARDOSTEROL B3]: the EC50 with HCT-15 is 10.4 µg/mL (≈ 23.8 µM); with SK-OV-3, 12.1 µg/mL (≈ 27.7 µM); in the assay with SK-MEL-2, 7.13 µg/mL (≈ 16.3 µM); with A549, 12.5 µg/mL (≈ 28.6 µM); in the assay with XF498 it was 14.7 µg/mL (≈ 33.7 µM).

Regarding `CC(/C=C/[C@@H](C)[C@H]1C[C@@H](O)[C@@H]2[C@]1(C)CC[C@@H]1[C@@]3(C)CC[C@H](O)[C@H](O)[C@@H]3[C@@H](O)C[C@]12O)[C@@H](C)O` (stereo not given in full) [CERTONARDOSTEROL A4], the EC50 in the assay with HCT-15 is 19.3 µg/mL (≈ 41.4 µM); in the assay with SK-OV-3 it was 16.4 µg/mL (≈ 35.1 µM); with SK-MEL-2, 5.7 µg/mL (≈ 12.2 µM); in the assay on A549, 17 µg/mL (≈ 36.4 µM); in the assay with XF498, 28.4 µg/mL (≈ 60.9 µM).

Turning to `CC(C)[C@@H](O)CC[C@@H](C)[C@H]1CC(=O)[C@@H]2[C@]1(C)CC[C@@H]1[C@@]3(C)CC[C@H](O)C[C@@H]3[C@@H](O)C[C@]12O` [CERTONARDOSTEROL Q3], the EC50 was 13.6 µg/mL (≈ 30.2 µM) in the assay with HCT-15; 12.3 µg/mL (≈ 27.3 µM) in the assay on SK-OV-3; 7.3 µg/mL (≈ 16.2 µM) in the assay with SK-MEL-2; 5.43 µg/mL (≈ 12 µM) in the assay with A549; 12.6 µg/mL (≈ 28 µM) in the assay on XF498.

`CC(C)[C@H](CC[C@@H](C)[C@H]1C[C@@H](O)[C@H]2[C@@H]3C[C@H](O)[C@H]4[C@@H](O)[C@@H](O)CC[C@]4(C)[C@H]3CC[C@@]21C)O[C@@H]1O[C@H](CO)[C@H](O)[C@H]1O` [CERTONARDOSIDE H4]: the EC50 in the assay on HCT-15 was more than 30 µg/mL; in the assay with SK-OV-3 it was more than 30 µg/mL; with SK-MEL-2 it was 8.3 µg/mL (≈ 14.2 µM); in the assay on A549, more than 30 µg/mL; with XF498, more than 30 µg/mL.

For the compound `CC(C)[C@@H](O)CC[C@@H](C)[C@H]1CC(=O)C2=C3C[C@H](O)[C@H]4[C@@H](O)[C@@H](O)CC[C@]4(C)[C@H]3CC[C@@]21C` [CERTONARDOSTEROL Q7], the EC50 stood at 7.1 µg/mL (≈ 15.8 µM) in the assay with HCT-15; 6.65 µg/mL (≈ 14.8 µM) in the assay with SK-OV-3; 4.66 µg/mL (≈ 10.4 µM) in the assay on SK-MEL-2; 4.58 µg/mL (≈ 10.2 µM) in the assay with A549; 3.8 µg/mL (≈ 8.47 µM) with XF498.

For the compound `C=C(CC[C@@H](C)[C@H]1CC(=O)[C@@H]2[C@]1(C)CC[C@@H]1[C@@]3(C)CC[C@H](O)[C@H](O)[C@@H]3[C@@H](O)C[C@]12O)[C@H](C)CO` [CERTONARDOSTEROL Q1], the EC50 in the assay on HCT-15 turned out to be 11.6 µg/mL (≈ 24.2 µM); in the assay with SK-OV-3 it was 10.9 µg/mL (≈ 22.8 µM); in the assay on SK-MEL-2 it was 5.57 µg/mL (≈ 11.6 µM); with A549 it was 12 µg/mL (≈ 25.1 µM); in the assay on XF498 it was 4.95 µg/mL (≈ 10.3 µM).
